Measured values from patent US7034159B2, “Pharmaceutical compositions comprising 1-isopropyl-3-[(4-m-toluidino-3-pyridyl)sulphonyl]-urea as active ingredient” (Cosma S.p.A., priority 2002, dated 2006).
Read-outs that look alike come from different tables or passages of the source.

Columns and labels:
[1] = Kondo et al. 1994, susceptibility to humidity/water, cited from earlier work
[2] = Drastic test with pure solid form II at 80° C. for two days in the absence of light; assay type: physicochemical
Experimental: Drastic Test with Pure Solid Form II at 80° C. for Two Days (Carried Out in the Absence of Light).

[3] = Accelerated ICH stability test with pure solid form II, polymorphic transformation followed by FT-IR in KBr; assay type: physicochemical; conditions: 40°±2C and 75±5% relative humidity, over 6 months
Description: For detectable polymorphic transformations is intended transformations visible from changes of the FT-IR spectrum of form II of torsemide registered in KBr. Specifically, the formation of a contamination of 1% or greater (by weight) of form I of torsemide in a sample of pure form II of torsemide would be a detectable polymorphic transformation by means of the relative change of the FT-IR spectrum registered in KBr which would imply the appearance of a peak in the position at 1697 cm^−1. Accelerated Test with Pure Solid Form II at 40°±2C and 75±5% of Relative Humidity. This type of test which is prescribed according to ICH (Q1A, “Stability testing of new Drug Substances and new Drug Products”, 1st edition Oct. 27, 1997 and 2nd edition Nov. 8, 2000) allows, according to internationally recognised procedures, to extrapolate the results obtained with this accelerated test to a mock storage period at room temperature for over 2 years. The inventors of the present patent application have subjected a series of pure samples of form II of torsemide to this test, and have assayed with the frequency and to the prescribed terms, the possible polymorphic transformations of the samples through registration of the FT-IR spectra in KBr on a Jasco apparatus.

[4] = Prolonged ICH stability test with pure solid form II, polymorphic transformation followed by FT-IR in KBr; assay type: physicochemical; conditions: 25°±2C and 60±5% relative humidity, after 13 months
Experimental: Prolonged Test with Pure Solid Form II at 25°±2C and 60±5% of Relative Humidity. This type of test which is prescribed according to ICH (Q1A, “Stability testing of new Drug Substances and new Drug Products”, 1st edition Oct. 27, 1997 and 2nd edition Nov. 8, 2000) follows possible degradation of the samples under more mild conditions, but over prolonged periods. The inventors of the present patent application have subjected a series of pure samples of form II of torsemide to this test, and have assayed with the frequency and to the prescribed terms, the possible polymorphic transformations of the samples through the registration of the FT-IR spectra in KBr on the Jasco apparatus.

[5] = Transformation of form II suspended in water (strong heating or prolonged treatment); assay type: physicochemical; conditions: suspended in water and strongly heated, or suspended in water and subjected to prolonged treatment
Description: 27, 1997 and 2nd edition Nov. 8, 2000) and recognised on the world scale for the evaluation of the stability of pharmaceutical substances.
Form I of torsemide is obtainable from form II of torsemide as above according to the instructions of Kondo, namely by suspension of an aliquot of form II in water (approx. 23 parts by weight) and subsequent stirring for 20 days at room temperature. The melting point of form I of torsemide, used by the inventors of the present patent application, measured with a Büchi B-540 according to USP class 1a (temperature increments of 1° C.±0.5° C./min starting from 10° C. from the expected melting point, inserting the sample at 5° C. from the melting point, then 1° C.±0.5° C./min until reaching the melting point), is 160.1°–160.5° C.

Row | Structure (SMILES) | relative stability of the polymorphic form [1] | polymorphic transformation [2] | polymorphic transformation (FT-IR in KBr, Jasco) [3] | polymorphic transformation (FT-IR in KBr, Jasco) [4] | relative stability of the polymorphic form ([1]; listed as form II) | polymorphic transformation in aqueous suspension [5]
1 | Cc1cccc(Nc2ccncc2S(=O)(=O)NC(=O)NC(C)C)c1 [form I, 1-isopropyl-3-[(4-m-toluidino-3-pyridyl)sulphonyl]-urea] | sufficiently stable |  |  |  |  | 
2 | Cc1cccc(Nc2ccncc2S(=O)(=O)NC(=O)NC(C)C)c1 [form II of torsemide, 1-isopropyl-3-[(4-m-toluidino-3-pyridyl)sulphonyl]-urea] |  | does not show a detectable polymorphic transformation | no detectable polymorphic transformation | could not see any detectable polymorphic transformation | poorly stable | transforms into form I
